# Test results reported in patent US20180028480A1, “METHODS OF REDUCING OR PREVENTING OXIDATIVE MODIFICATION OF MEMBRANE POLYUNSATURATED FATTY ACIDS” (Amarin Pharmaceuticals Ireland Limited, priority 2015, published 2018).
# Experiments:
# [1] = test system: lipid vesicles enriched with PUFAs and cholesterol; experiment: Glucose-induced membrane lipid peroxidation (LOOH) in DLPC/cholesterol multilamellar vesicles (Example 4); type: biochemical; conditions: for effect on LOOH formation / lipid peroxidation: 72- and 96-hour time points, 1:30 drug-to-phospholipid mole ratio (FIG. 3)
# Experimental: Vitamin E (α-tocopherol) was also purchased from Sigma-Aldrich and prepared in ethanol at 1.0 mM (ε32 3.06×10^4 M^−1 cm^−1 at 294 nm) just prior to experimental use. […] All test compounds were further diluted in ethanol or aqueous buffer as needed. Glucose was prepared in saline buffer (0.5 mM HEPES, 154 mM NaCl, pH 7.3) at 11.0 mM (200 mg/dL). CHOD-iodide color reagent (stock) was prepared, with slight modification, as described by from El-Saadani et al. (J. […] Prior to experimental use, the CHOD reagent was activated by adding 24 μM ethylenediaminetetraacetic acid (EDTA), 20 μM butylated hydroxytoluene (BHT), and 0.2% Triton X-100. Multilamellar vesicles (MLVs) were prepared as binary mixtures of DLPC (1.0 or 2.5 mg total phospholipid per sample) and cholesterol at a fixed cholesterol-to-phospholipid (C/P) mole ratio of 0.6:1. Component lipids (in chloroform) were transferred to 13×100 mm borosilicate culture tubes and combined with vehicle (ethanol) or an equal volume of fatty acid, vitamin E, or ATM stock solutions, each adjusted to achieve desired treatment concentrations. Samples were shell-dried under nitrogen gas and placed under vacuum for 1 h to remove residual solvent. […] Lipid suspensions were then vortexed for 3 min at ambient temperature to form MLVs. All MLV samples were subjected to time-dependent autoxidation by incubating at 37° C. in an uncovered, shaking water bath. This method allows lipid peroxidation to occur gradually without requiring the use of exogenous initiators. Small aliquots (5-100 μL) of each sample were removed, immediately following MLV preparation (0 hour) and after exposing samples to oxidative conditions for 72 or 96 hour, and combined with 1.0 mL of activated CHOD-iodide color reagent. Aliquot volume was reduced with each successive time point to ensure that spectrophotometric readings were within the optimal adsorption range. Test samples were covered and incubated in darkness at room temperature for at least 4 hr. Sample absorbances were then measured against a CHOD blank at 365 nm using a Beckman DU-640 spectrophotometer. The CHOD colorimetric assay is based on the oxidation of iodide (I^−) by lipid hydroperoxide (LOOH) to form triiodide (I3^−), the quantity of which is directly proportional to the amount of LOOH present in the lipid sample. The molar absorptivity (c) of I3^− is 2.46×10^4 M^−1 cm^−1 at 365 nm. […] The concentration of glucose selected was consistent with previous experimental studies of hyperglycemia under controlled laboratory conditions or observed in well-defined animal models of Type II diabetes following a glucose challenge. […] Values in FIG. 1 are mean±S.D. (N=6). […]
# unfractionated LDL = experiment: Copper-induced oxidation of unfractionated LDL, TBARS (Example 6); type: biochemical, human; conditions: 1.0 μM to 10.0 μM
# Experimental: All test compounds were further diluted in ethanol or aqueous buffer as needed. Venous blood was collected from healthy volunteers into vacutainer tubes containing sodium EDTA. […] Plasma and lipoprotein fractions were maintained at 4° C. and protected from excessive exposure to light. Prior to oxidation experiments, EDTA was removed from the lipoprotein fraction using PD-10 desalting columns (GE Healthcare, Piscataway N.J.). After equilibration of the column with phosphate buffered saline (PBS), 2.5 mL of the lipoprotein fraction was loaded on the column and the flow-through discarded. The lipoprotein was then eluted with 3 mL of PBS. The LDL fractions were further diluted with PBS to obtain a 100 μg/mL apoB100 concentration. […] Sample TBARS concentrations were determined spectrophotometrically by measuring sample absorbances against a standard curve derived from the hydrolysis of 1,1,3,3-tetramethoxypropane. […] Differences between groups were analyzed using the two-tailed, Student's t-test (for comparisons between only two groups) or ANOVA followed by Dunnett or Student-Newman-Keuls multiple comparisons post-hoc analysis (for comparisons between three or more groups).
# [2] = X-ray diffraction of glucose-treated DLPC/cholesterol membranes under oxidative conditions (Example 8); conditions: 10.0 μM; 0.6 C/P; glucose-induced lipid peroxidation 72 hours (FIG. 14)
# Experimental: Values are reported as mean±S.D. (N=3).
# […] Membranes were reconstituted from DLPC and cholesterol at a C/P mole ratio of 0.6:1 and treated with the various agents to achieve a total drug-to-phospholipid mole ratio of 1:30.
# Multilamellar vesicles (MLVs) were prepared as binary mixtures of POPC and cholesterol at 50 mol %. MLVs with DLPC and cholesterol at cholesterol-to-phospholipid (C/P) mole ratios of 0.1:1 to 1.1:1 were also prepared in a similar manner. Component lipids (in chloroform) were transferred to borosilicate culture tubes and combined with vehicle (ethanol) or an equal volume of EPA, DHA, fenofibrate, niacin or gemfibrozil stock solution(s) and adjusted to achieve a drug-to-phospholipid (D/P) mole ratio of 1:30. Membranes reconstituted from POPC and cholesterol (at 50 mol % cholesterol) were treated with each of the various agents at 5 mol %. Samples were then shell-dried under nitrogen gas and placed under vacuum for 3 hours to remove residual solvent.
# After drying, each sample was resuspended in glucose-free or glucose-containing saline buffer to yield a final phospholipid concentration of 2.5 mg/mL. Lipid suspensions were then vortexed for 3 minutes at ambient temperature to form MLVs.
# Membrane samples were oriented for x-ray diffraction analysis as described in Mason, et al., J. Biol. Chem., vol. 281, pages 9337-45 (2006). Briefly, 100 μL aliquots of each MLV preparation (containing 250 μg of phospholipid) were transferred to Lucite sedimentation cells fitted with a removable aluminum foil substrate designed to collect MLVs into a single membrane pellet upon centrifugation. Samples were then loaded into a Sorvall AH-629 swinging bucket ultracentrifuge rotor (DuPont Corp., Wilmington, Del.) and centrifuged at 35,000 g, 5° C., for 1.5 hours.
# Following membrane orientation, sample supernatants were aspirated and aluminum foil substrates mounted onto curved glass slides. The membrane samples were then placed in hermetically sealed containers in which temperature and relative humidity were controlled during x-ray diffraction analysis. Data reported in this study were collected at 20° C. and 74% relative humidity.
# This technique allows for precise measurement of the unit cell periodicity, or d-space, of the membrane lipid bilayer, which is the distance from the center of one lipid bilayer to the next, including surface hydration.
# The presence of cholesterol domains in a given membrane sample results in the production of distinct Bragg (diffraction) peaks that have singular periodicity values of 34 Å and 17 Å. These peaks are typically referred to as first- and second-order cholesterol domain peaks.
SMILES,effect on LOOH formation / lipid peroxidation [1],"antioxidant effect (LOOH formation), separate treatments ([1]; each at 1.0 μM, glucose 200 mg/dL, 96 hours)",LDL oxidation (unfractionated LDL),effect on d-space values [2]
"CC/C=C\C/C=C\C/C=C\C/C=C\C/C=C\CCCC(=O)O [EPA, cis-5,8,11,14,17-Eicosapentaenoic acid]",significantly inhibited LOOH formation,separate and potent antioxidant effects,generally inhibit LDL oxidation,significantly inhibited glucose-induced reductions and peroxidation-induced reductions in d-space values
"Cc1c(C)c2c(c(C)c1O)CC[C@@](C)(CCC[C@H](C)CCC[C@H](C)CCCC(C)C)O2 [vitamin E, α-tocopherol, reference compound]",no significant effect on lipid peroxidation,,did not inhibit LDL oxidation at any concentration,
